By IC50 is commonly meant the concentration that gives 50% inhibition. Read a high IC50 as weaker potency.

This test addresses D-amino-acid oxidase (Sus scrofa, UniProt P00371). As to the kind of experiment: In vitro D-Amino Acid Oxidase Assay. Particulars: pH 8.5; 22 °C. Here is the method: D-amino acid oxidase (DAAO) was assayed in a 96-well plate format. D-serine was oxidatively deaminated by porcine D-amino acid oxidase in the presence of molecular oxygen and flavin […] dinucleotide (FAD) to yield the corresponding alpha-keto acid, ammonia and hydrogen peroxide.

Sequence of D-amino-acid oxidase (P00371 whole entry): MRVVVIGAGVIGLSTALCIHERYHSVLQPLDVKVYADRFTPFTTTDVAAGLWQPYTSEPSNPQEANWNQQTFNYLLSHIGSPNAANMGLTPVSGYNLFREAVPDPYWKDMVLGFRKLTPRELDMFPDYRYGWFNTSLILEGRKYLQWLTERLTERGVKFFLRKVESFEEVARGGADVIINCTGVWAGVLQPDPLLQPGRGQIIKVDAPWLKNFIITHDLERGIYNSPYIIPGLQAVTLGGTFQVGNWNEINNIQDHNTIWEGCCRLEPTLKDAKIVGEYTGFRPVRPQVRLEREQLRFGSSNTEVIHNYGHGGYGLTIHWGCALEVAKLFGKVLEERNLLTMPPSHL

In turn, `O=c1[nH]oc2c1CCCC2` [4,5,6,7-tetrahydrobenzo[d]isoxazol-3-ol] came in with an IC50 of over 100 µM.

The values are drawn from BindingDB's records for doi:10.1021/jm800200u (Mgi Pharma, 2008).
